We go through one compound from US8993839B2, “Plant-based production of heterologous proteins” (The Regents of the University of California, priority 2010, dated 2015).

This assay deals with Acidothermus cellulolyticus β-1,4-endoglucanase E1 (P. pastoris-produced) (Acidothermus cellulolyticus, UniProt P54583). As to the kind of experiment: Michaelis-Menten kinetics of purified E1 (produced in P. pastoris, IMAC purified): cleavage of MUC to cellobiose and MU at various temperatures. In kind it is biochemical. The settings on record: substrate MUC, E1 concentration by Bradford assay. Here is the method: Endoglucanase activity assay: Endoglucanase (E1) cleaves methylumbelliferyl-tagged cellobiose (MUC), releasing methylumbelliferone (MU). The MU fluorescence can be measured to determine E1 activity. The relative fluorescence readings of 0.024 to 3.0 μM MU solutions were used to create a linear standard curve. Samples containing E1 were diluted so the concentration of MU released fell within the standard curve. A 60 μl aliquot of diluted supernatant was added to 540 μl of acetate buffer (200 mM acetate, pH 5.5, 100 mM NaCl) and 200 μl of substrate (500 μM MUC). 200 μl of reaction was sampled at time zero and after 30 minutes and added to 800 μl of stop buffer (150 mM glycine, pH 10). The change in fluorescence over time was measured with a VersaFluor fluorometer (Bio-Rad). Fluorescence was converted to an activity, and the specific activity reported in the literature was used to approximate the concentration of E1 in Pichia supernatants. The Michaelis-Menten kinetic parameters of purified endoglucanase were determined. The E1 was produced in P. pastoris and purified by IMAC (immobilized metal affinity chromatography). E1 cleaves the substrate (MUC) into cellobiose and a fluorophore (MU), the concentration of which can be monitored over time. When run at 65° C. and […] substrate, this is the reaction used for the activity assay for E1 in plant extracts and yeast cultures. In this set of experiments, the substrate concentration was varied to determine the kinetic parameters at different temperatures. The rate for a reaction displaying Michaelis-Menten kinetics is shown in Equation 1. The rate depends on the catalysis rate (kcat), the total enzyme concentration (ET), the adsorption/desorption rates which are lumped into the Michaelis-Menten constant (KM), and the substrate concentration (S). At high substrate concentrations (S>>KM), the rate approaches a maximum, and […] is often written as Vmax. The parameters Vmax and KM can be determined experimentally by varying the substrate concentration (S) and measuring the reaction rate (V) at each concentration. Equation 1 can be rearranged as a linear equation (Equation 2). When the reciprocal of the reaction rate (V) is plotted against the reciprocal of the substrate concentration (S), a line fitting the data points can be used to determine KM/Vmax (the slope) and 1/Vmax (y-intercept). A Bradford assay was used to determine the E1 protein concentration in each sample, and this value of ET was used to calculate the kcat values in Table 1. Table 1 depicts a summary of Michaelis-Menten parameters for E1-catalyzed degradation of MUC to MU at various temperatures.
Acidothermus cellulolyticus β-1,4-endoglucanase E1 (P. pastoris-produced), sequence (P54583 other isoform, or with tags, fused parts or gaps): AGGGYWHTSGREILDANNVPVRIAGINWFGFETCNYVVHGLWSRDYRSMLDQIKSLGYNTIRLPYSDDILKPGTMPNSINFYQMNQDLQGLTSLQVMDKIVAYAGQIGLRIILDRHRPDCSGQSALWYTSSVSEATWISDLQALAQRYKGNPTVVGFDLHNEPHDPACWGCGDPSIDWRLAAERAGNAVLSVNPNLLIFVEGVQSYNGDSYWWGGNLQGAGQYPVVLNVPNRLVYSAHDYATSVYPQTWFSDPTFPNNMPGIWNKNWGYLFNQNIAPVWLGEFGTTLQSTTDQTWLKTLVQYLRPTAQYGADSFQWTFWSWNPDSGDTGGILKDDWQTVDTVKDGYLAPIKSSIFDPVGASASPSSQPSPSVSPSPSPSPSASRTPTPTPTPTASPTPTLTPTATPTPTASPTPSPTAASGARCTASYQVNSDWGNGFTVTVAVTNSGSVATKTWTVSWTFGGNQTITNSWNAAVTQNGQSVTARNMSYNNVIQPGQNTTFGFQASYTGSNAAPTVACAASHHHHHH

`Cc1cc(=O)oc2cc(O[C@@H]3O[C@H](CO)[C@@H](O[C@@H]4O[C@H](CO)[C@@H](O)[C@H](O)[C@H]4O)[C@H](O)[C@H]3O)ccc12` [MUC, methylumbelliferyl-tagged cellobiose]: the kcat (50 °C) is 106 ± 5 L/min; the kcat (65 °C) came to 309 ± 13 L/min; the kcat (80 °C) worked out at 667 ± 92 L/min; the kcat (93 °C, uncertainty approaches 100%, not used further) amounted to 292 ± 284 L/min.
